Data: article PMC4481117 (Molecular Pain, 2015)

Legend:
[1] = test system: αMI-domain (active and nonactive forms); assay: Solid-phase binding of active and nonactive GST-αMI-domains; conditions: immobilized peptide, 1.5 h at 22 °C, anti-GST detection, 405 nm; means of triplicates, representative of n = 4
Procedure: Fig. 2 Binding of the active and nonactive αMI-domain conformers to dynorphin. a, the 3D structure of active (PDB ID 1ido) and nonactive (PDB ID 1jlm) αMI-domains are shown as ribbon diagrams. The wells of microtiter plates were coated with different concentrations of dynorphin A (b) and the D100 fragment of fibrinogen (c). The active (●) and nonactive (○) recombinant αMI-domains containing GST fusion parts were added to the wells and incubated for 1.5 h at 22 °C. Bound αMI-domains were detected with an anti-GST mAb followed by an AP-conjugated secondary antibody. Data are the means of triplicate determinations, and error bars represent S.E. Representative experiments in b (n = 4) and c (n = 4) are shown. For multiple comparisons, individual concentrations were tested using t-test with p-value of 0.05 corrected by Bonferroni method and accepting values of 0.007 as significant (**).
Dyn A ([…]), Dyn B ([…]), and control peptide ([…]) were purchased from AnaSpec, Inc (San Jose, CA). […]
Microtiter plates were coated with different concentrations of the fibrinogen D100 fragment or Dyn A overnight at 4 °C and post-coated with 3 % BSA for 1 h. […] After washing, goat anti-mouse IgG conjugated to alkaline phosphatase was added for 1 h and the binding of the αMI-domains was detected by reaction with p-nitrophenyl phosphate measuring the absorbance at 405 nm. […]

LFA-1 (αLβ2, CD11a/CD18) = assay: Adhesion of LFA-1-expressing HEK293 cells to immobilized peptide; assay type: cell-based, Human; conditions: peptide immobilized at 10 μM, 30 min at 37 °C
Procedure: Fig. 3 Adhesion of Mac-1-expressing cells to Dyn A and Dyn B. a, Mac-1-expressing and wild-type HEK293 cells were labeled with calcein and 5x10^4 cells were added to the wells coated with different concentrations of the Dyn A. After 30 min at 37 °C, nonadherent cells were removed and fluorescence was measured. The data shown are means of triplicate determinations, and error bars represent S.E. The figure is representative of 8 experiments. b , adhesion of HEK293 cells expressing Mac-1, LFA and the I-less form of Mac-1 to Dyn A and Dyn B immobilized at 10 μM was determined as described in A. c, calcein-labeled Mac-1-HEK293 cells were preincubated without or with 10 μg/ml of anti-αM mAb 44a or 1 μg/ml NIF for 15 minutes. For testing the role of glucosaminoglycans in cell adhesion, dynorphin A-coated wells were preincubated with 100 μl of 10 μg/ml of chondroitin sulfate A, chondroitin sulfate B and heparin. […]
Adhesion assays were performed essentially as described previously. […] Fluorescence was measured in a CytoFluorII fluorescence plate reader (Perceptive Biosystems, Framingham, MA). […] After aspirating the solution, labeled cells were added and cell adhesion was analyzed as above.

## CC[C@H](C)[C@H](NC(=O)[C@H](CCCNC(=N)N)NC(=O)[C@H](CCCNC(=N)N)NC(=O)[C@H](CC(C)C)NC(=O)[C@H](Cc1ccccc1)NC(=O)CNC(=O)CNC(=O)[C@@H](N)Cc1ccc(O)cc1)C(=O)N[C@@H](CCCNC(=N)N)C(=O)N1CCC[C@H]1C(=O)N[C@@H](CCCCN)C(=O)N[C@@H](CC(C)C)C(=O)N[C@@H](CCCCN)C(=O)N[C@@H](Cc1c[nH]c2ccccc12)C(=O)N[C@@H](CC(=O)O)C(=O)N[C@@H](CC(N)=O)C(=O)N[C@@H](CCC(N)=O)C(=O)O [Dyn A]
[1]
  Difference in binding of active and nonactive αMI-domains: No significant difference in binding of active and nonactive αMI-domains
LFA-1 (αLβ2, CD11a/CD18)
  Adhesion of LFA-1-HEK293 cells: 13 ± 2%
